In BigSolDB 2.1:

Cc1ccc2c(c1)C(=O)OC2=O
solubility (mole fraction)
Details	278.15 K	283.15 K	288.15 K	293.15 K	298.15 K	303.15 K	308.15 K	313.15 K	318.15 K
in acetone	0.127	0.15	0.176	0.206	0.236	0.272	0.312	0.356	0.406
in acetonitrile	0.101	0.118	0.141	0.167	0.193	0.224	0.258	0.3	0.343
in cyclohexane	–	0.00152	0.0019	0.00245	0.0031	0.00396	0.00489	0.00591	0.00729
in methyl acetate	0.179	0.206	0.236	0.263	0.289	0.328	0.363	0.41	0.449
in n-butyl acetate	0.0226	0.0267	0.0312	0.0397	0.0473	0.0586	0.0716	0.0858	0.102
in n-heptane	0.00107	0.00142	0.00178	0.00227	0.00284	0.00355	0.00444	0.00556	0.007
in tetrachloromethane	0.00751	0.00871	0.0105	0.0127	0.0157	0.0189	0.0222	0.0265	0.0321
in toluene	0.0651	0.0781	0.0945	0.11	0.133	0.158	0.188	0.225	0.273
